Values quoted from earlier work, collected in patent US20140031355A1, “HETEROCYCLIC COMPOUNDS AND THEIR USES” (Amgen Inc., priority 2010, published 2014).

Columns and labels:
p110δ = biological target: T1, p110δ (Homo sapiens, UniProt O00329)
T1 sequence (O00329 1-1044): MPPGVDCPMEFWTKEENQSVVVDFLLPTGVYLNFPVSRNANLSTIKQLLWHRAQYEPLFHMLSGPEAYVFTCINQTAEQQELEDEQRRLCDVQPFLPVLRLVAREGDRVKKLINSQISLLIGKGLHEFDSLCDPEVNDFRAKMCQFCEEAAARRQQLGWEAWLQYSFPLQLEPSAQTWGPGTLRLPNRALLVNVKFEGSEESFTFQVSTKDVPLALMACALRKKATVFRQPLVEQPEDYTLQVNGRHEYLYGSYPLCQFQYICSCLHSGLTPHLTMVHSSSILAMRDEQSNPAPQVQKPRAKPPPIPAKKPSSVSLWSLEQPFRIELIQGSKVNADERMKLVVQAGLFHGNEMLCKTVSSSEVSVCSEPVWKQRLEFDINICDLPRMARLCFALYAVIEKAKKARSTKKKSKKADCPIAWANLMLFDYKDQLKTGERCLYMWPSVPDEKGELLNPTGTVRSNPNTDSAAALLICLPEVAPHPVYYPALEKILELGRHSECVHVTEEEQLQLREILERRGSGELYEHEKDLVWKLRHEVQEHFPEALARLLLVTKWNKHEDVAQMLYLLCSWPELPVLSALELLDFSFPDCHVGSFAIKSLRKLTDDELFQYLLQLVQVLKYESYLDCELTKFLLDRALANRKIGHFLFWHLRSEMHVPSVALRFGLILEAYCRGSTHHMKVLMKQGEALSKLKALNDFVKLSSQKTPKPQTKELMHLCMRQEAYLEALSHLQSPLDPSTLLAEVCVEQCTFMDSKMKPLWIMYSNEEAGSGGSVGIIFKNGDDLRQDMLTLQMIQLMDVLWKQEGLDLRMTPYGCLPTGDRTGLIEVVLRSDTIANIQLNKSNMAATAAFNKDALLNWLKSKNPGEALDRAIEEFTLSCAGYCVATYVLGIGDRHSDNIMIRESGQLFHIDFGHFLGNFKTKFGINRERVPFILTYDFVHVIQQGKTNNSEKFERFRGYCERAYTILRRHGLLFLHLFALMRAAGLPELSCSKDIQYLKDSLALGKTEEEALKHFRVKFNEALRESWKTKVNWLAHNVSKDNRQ

[1] = test system: passive cutaneous anaphylaxis (PCA); settings: absence of functional delta (IC 87114 and p110δ D910A mice)
[2] = test system: ovalbumin-induced airway inflammation
[3] = test system: rheumatoid arthritis model; settings: in vivo
[4] = test system: systemic lupus erythematosis model; settings: in vivo

| SMILES | inhibits p110δ (p110δ) | activity against any protein kinases tested (protein kinases) | passive cutaneous anaphylaxis (PCA) [1] | inflammation and disease in a murine model of asthma [2] | efficacy in a mouse model of rheumatoid arthritis [3] | onset of disease in a model of systemic lupus erythematosis [4] |
| --- | --- | --- | --- | --- | --- | --- |
| Cc1ccccc1-n1c(Cn2cnc3c(N)ncnc32)nc2cccc(C)c2c1=O [IC87114] | high nanomolar range (triple digit) | no activity | significantly reduced | significantly ameliorate |  |  |
| O=C1NC(=O)/C(=C\c2ccc3nccnc3c2)S1 [AS 605240] |  |  |  |  | efficacious | delay onset of disease |
